Earlier results in US8471030B2, “Purification of montelukast using simulated moving bed” (Orochem Technologies Inc., priority 2010, dated 2013).

stability in acidic solutions (acidic solutions): degrade rapidly | stability in solution when exposed to light (in solution, exposed to light, forms the Montelukast-cis isomer): unstable when exposed to light
Structure (SMILES): CC(C)(O)c1ccccc1CC[C@@H](SCC1(CC(=O)O)CC1)c1cccc(/C=C/c2ccc3ccc(Cl)cc3n2)c1 [Montelukast]
